Data as given in patent US12061201B2, “Fluorescent probes for the visualization of FtsZ in gram-positive and gram-negative bacterial pathogens” (Rutgers, The State University of New Jersey, priority 2019, dated 2024).
Read-outs that look alike come from different tables or passages of the source.

Columns and labels:
Test in all cases: Fluorescence anisotropy binding of BOFP to FtsZ
[1] = target: T1, Pseudomonas aeruginosa FtsZ (PaFtsZ) (Pseudomonas aeruginosa, UniProt P47204); conditions: for Kd: 50 mM Tris-HCl (pH 7.6), 50 mM KCl
T1 sequence (P47204 1-394): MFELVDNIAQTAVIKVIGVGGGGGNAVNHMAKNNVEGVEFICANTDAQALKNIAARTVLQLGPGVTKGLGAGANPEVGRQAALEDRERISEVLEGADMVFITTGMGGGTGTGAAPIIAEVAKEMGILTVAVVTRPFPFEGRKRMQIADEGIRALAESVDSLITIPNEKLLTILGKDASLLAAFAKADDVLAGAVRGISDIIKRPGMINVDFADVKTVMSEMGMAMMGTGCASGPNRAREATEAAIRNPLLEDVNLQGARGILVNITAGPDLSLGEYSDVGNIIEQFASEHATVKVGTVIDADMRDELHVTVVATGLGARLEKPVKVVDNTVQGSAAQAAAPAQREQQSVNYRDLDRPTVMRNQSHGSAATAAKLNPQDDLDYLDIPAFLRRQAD
Method: (§1) Fluorescence anisotropy assay for determining the affinities and thermodynamics associated with the binding of BOFP to FtsZ proteins. Fluorescence anisotropy experiments were performed using an AVIV model ATF105 spectrofluorometer at 15, 25, or 37° C. In these experiments, bandwidths were set to 4 nm in both the excitation and emission directions, with the excitation and emission wavelengths being set at 488 nm and 510 nm, respectively. BOFP (0.1 μM) was titrated with increasing concentrations (ranging from 0 to 12 μM) of FtsZ in 120 μL of buffer containing 50 mM Tris-HCl (pH 7.6) and 50 mM KCl. After each protein addition, the samples were equilibrated for 3 minutes, whereupon the fluorescence anisotropy was measured.
(§2) [formula] In this equation, r0 is the anisotropy of the protein-free compound, r∞ is the anisotropy of the compound in the presence of an infinite concentration of FtsZ, [C]tot is the total concentration of the compound, and [P]tot is the total concentration of protein with each addition. These analyses yielded the equilibrium dissociation constant (Kd) for each binding reaction.
(§3) The binding free energy (ΔG) at temperature T was derived from the corresponding Kd value determined at T using the following relationship:
(§4) [formula] The binding enthalpy (ΔH) and entropy (ΔS) were derived from linear fits of the ln(1/Kd) vs. 1/T plots shown in FIGS. 3f and 5e using the following relationship:
(§5) A quartz ultra-micro cell (Hellma) with a 2×5 mm aperture and a 15 mm center height was used for all measurements. The pathlengths in the excitation and emissions directions were 1 and 0.2 cm, respectively. All steady-state anisotropy experiments were conducted in at least triplicate, with the reported anisotropies reflecting the average values.

[2] = target: Enterococcus faecalis FtsZ (EfsFtsZ) (Enterococcus faecalis, UniProt O08439); conditions: for Kd: 50 mM Tris-HCl (pH 7.6), 50 mM KCl
Chain of Enterococcus faecalis FtsZ (EfsFtsZ) (O08439 whole entry): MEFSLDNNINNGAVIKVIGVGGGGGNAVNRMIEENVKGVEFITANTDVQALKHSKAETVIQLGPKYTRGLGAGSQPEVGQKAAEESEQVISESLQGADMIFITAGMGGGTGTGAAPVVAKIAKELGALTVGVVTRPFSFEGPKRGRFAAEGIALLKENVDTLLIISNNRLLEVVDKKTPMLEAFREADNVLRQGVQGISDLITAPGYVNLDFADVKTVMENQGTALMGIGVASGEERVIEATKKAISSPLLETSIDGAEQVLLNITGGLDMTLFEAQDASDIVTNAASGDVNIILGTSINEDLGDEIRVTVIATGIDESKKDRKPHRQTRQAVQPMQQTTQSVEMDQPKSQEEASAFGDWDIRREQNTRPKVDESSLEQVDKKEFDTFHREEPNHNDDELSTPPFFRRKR
Method: as §1, §2, §3, §4, §5

[3] = target: Escherichia coli FtsZ (EcFtsZ) (Escherichia coli, UniProt P0A9A6); conditions: for Kd: 50 mM Tris-HCl (pH 7.6), 50 mM KCl
Chain of Escherichia coli FtsZ (EcFtsZ) (P0A9A6 whole entry): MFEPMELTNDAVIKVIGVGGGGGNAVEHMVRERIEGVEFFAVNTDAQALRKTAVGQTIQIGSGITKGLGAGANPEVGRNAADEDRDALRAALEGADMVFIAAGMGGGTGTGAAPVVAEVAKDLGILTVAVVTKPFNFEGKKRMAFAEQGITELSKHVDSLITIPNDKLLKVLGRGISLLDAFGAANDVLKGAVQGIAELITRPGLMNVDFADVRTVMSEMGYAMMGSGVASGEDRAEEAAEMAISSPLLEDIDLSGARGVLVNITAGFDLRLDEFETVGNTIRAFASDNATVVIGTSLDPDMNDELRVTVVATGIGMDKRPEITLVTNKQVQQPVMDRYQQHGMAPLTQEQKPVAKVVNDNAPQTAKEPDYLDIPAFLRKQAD
Method: as §1, §2, §3, §4, §5

[4] = target: T2, Acinetobacter baumannii FtsZ (AbFtsZ) (Acinetobacter baumannii, UniProt V5V8B6); conditions: for Kd: 50 mM Tris-HCl (pH 7.6), 50 mM KCl
T2 sequence (V5V8B6 1-391): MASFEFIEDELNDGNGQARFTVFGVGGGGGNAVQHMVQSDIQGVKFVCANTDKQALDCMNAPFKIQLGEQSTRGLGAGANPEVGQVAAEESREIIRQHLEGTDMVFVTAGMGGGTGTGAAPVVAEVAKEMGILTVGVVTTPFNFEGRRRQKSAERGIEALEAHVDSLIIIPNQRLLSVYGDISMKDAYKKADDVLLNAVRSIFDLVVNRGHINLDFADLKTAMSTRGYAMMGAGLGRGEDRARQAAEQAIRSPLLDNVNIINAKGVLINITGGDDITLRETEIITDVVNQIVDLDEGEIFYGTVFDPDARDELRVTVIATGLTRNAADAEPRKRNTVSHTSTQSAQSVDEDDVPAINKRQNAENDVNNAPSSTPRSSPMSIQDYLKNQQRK
Method: as §1, §2, §3, §4, §5

[5] = target: T3, S. aureus FtsZ (SaFtsZ) (Staphylococcus aureus, UniProt P0A031)
T3 sequence (P0A031 1-390): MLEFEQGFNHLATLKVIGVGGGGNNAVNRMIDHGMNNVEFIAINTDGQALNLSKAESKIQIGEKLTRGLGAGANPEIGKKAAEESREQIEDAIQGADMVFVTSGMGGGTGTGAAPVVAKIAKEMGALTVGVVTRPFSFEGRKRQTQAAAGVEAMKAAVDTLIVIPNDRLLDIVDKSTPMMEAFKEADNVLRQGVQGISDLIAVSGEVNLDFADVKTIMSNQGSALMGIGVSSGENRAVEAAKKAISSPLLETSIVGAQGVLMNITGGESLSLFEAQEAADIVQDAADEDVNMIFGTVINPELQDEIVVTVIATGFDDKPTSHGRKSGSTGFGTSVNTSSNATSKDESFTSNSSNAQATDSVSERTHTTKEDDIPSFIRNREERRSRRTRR
Method: as §1, §2, §3, §4, §5

[6] = target: Streptococcus pyogenes FtsZ (SpyFtsZ) (Streptococcus pyogenes, UniProt Q99YV7); conditions: for Kd: 50 mM Tris-HCl (pH 7.6), 50 mM KCl
Chain of Streptococcus pyogenes FtsZ (SpyFtsZ) (Q99YV7 entry or part of it): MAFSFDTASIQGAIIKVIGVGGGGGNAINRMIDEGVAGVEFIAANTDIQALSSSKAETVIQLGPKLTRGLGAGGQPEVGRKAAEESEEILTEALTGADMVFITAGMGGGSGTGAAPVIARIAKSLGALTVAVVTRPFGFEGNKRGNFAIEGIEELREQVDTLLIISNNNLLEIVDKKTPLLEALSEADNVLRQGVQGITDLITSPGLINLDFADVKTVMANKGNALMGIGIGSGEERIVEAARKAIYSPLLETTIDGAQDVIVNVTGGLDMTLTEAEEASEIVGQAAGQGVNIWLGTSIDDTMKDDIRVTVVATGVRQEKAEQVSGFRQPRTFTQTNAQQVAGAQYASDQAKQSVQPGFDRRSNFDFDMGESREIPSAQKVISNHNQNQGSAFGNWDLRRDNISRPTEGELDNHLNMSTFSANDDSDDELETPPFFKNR
Method: as §1, §2, §3, §4, §5

[7] = linear fit of ln(1/Kd) vs. 1/T, Eq. 3
[8] = SaFtsZ, linear fit of ln(1/Kd) vs. 1/T, Eq. 3

With `CC1=CC(C)=[N+]2C1=Cc1ccc(CCC(=O)OCC(Oc3ccc(F)c(C(N)=O)c3F)c3nc(-c4ccc(C(F)(F)F)cc4)c(Br)o3)n1[B-]2(F)F` (stereo not drawn) [BOFP, 2-(5-bromo-4-(4-(trifluoromethyl)phenyl)-oxazol-2-yl)-2-(3-carbamoyl-2,4-difluorophenoxy)ethyl 3-(5,5-difluoro-7,9-dimethyl-5H-5λ^4,6λ^4-dipyrrolo[1,2-c:2′,1′-f][1,3,2]diazaborinin-3-yl)propanoate] the “ΔH contribution to the observed ΔG of binding” value (“ΔH contribution” below) [1] was over 50%, the Kd ([1]; 15° C., read-out: Kd −15° C.) was 230 ± 20 nM and the Kd ([1]; 25° C., read-out: Kd −25° C.) was 360 ± 60 nM. It also gave a Kd ([1]; 37° C., read-out: Kd −37° C.) of 580 ± 60 nM, a ΔG ([1]; T = 310K (37° C.), Eq. 2) of -8.8 ± 0.1 kcal/mol and a ΔH [1, 7] of -7.7 ± 0.2 kcal/mol. For the same compound, the ΔS [1, 7] was “+3.8 + 0.6 cal/mol · K”, the “enthalpic contribution (ΔH) to the observed ΔG of binding” value [2] was 100% and the Kd ([2]; 15° C., read-out: Kd −15° C.) was 1720 ± 60 nM. The Kd ([2]; 25° C., read-out: Kd −25° C.) was 3050 ± 250 nM, the Kd ([2]; 37° C., read-out: Kd −37° C.) was 4620 ± 120 nM and the ΔG ([2]; T = 310K (37° C.), Eq. 2) was -7.6 ± 0.1 kcal/mol. The ΔH [2, 7] was -7.9 ± 1.0 kcal/mol, the ΔS [2, 7] was −1.2 ± 3.3 cal/mol · K and the “ΔH contribution” value [3] was over 50%. It also gave a Kd ([3]; 15° C., read-out: Kd −15° C.) of 220 ± 30 nM, a Kd ([3]; 25° C., read-out: Kd −25° C.) of 280 ± 20 nM and a Kd ([3]; 37° C., read-out: Kd −37° C.) of 440 ± 40 nM. The ΔG ([3]; T = 310K (37° C.), Eq. 2) was -9.0 ± 0.1 kcal/mol, the ΔH [3, 7] was -5.6 ± 0.8 kcal/mol and the ΔS [3, 7] was “+11.2 ± 2.7 cal/mol · K”. The “ΔS contribution to the observed ΔG of binding” value [4] was over 50%, the Kd ([4]; 15° C., read-out: Kd −15° C.) was 400 ± 30 nM and the Kd ([4]; 25° C., read-out: Kd −25° C.) was 550 ± 20 nM. For the same compound, the Kd ([4]; 37° C., read-out: Kd −37° C.) was 680 ± 40 nM, the ΔH [4, 7] was -4.2 ± 0.6 kcal/mol and the ΔS [4, 7] was “+14.5 ± 2.1 cal/mol · K”. For the same compound, the Kd [5] was 880 to 3140 nM, the “enthalpic contribution (ΔH) to the observed ΔG of binding” value ([5]; SaFtsZ) was 100% and the Kd ([5]; SaFtsZ, 15° C., 50 mM Tris-HCl (pH 7.6), 50 mM KCl, read-out: Kd −15° C.) was 880 ± 80 nM. The Kd ([5]; SaFtsZ, 25° C., 50 mM Tris-HCl (pH 7.6), 50 mM KCl, read-out: Kd −25° C.) was 1660 ± 120 nM, the Kd ([5]; SaFtsZ, 37° C., 50 mM Tris-HCl (pH 7.6), 50 mM KCl, read-out: Kd −37° C.) was 3140 ± 130 nM and the ΔG ([5]; SaFtsZ, T = 310K (37° C.), Eq. 2) was -7.8 ± 0.1 kcal/mol. For the same compound, the ΔH [5, 8] was -10.2 ± 0.3 kcal/mol, the ΔS [5, 8] was −7.8 ± 1.0 cal/mol · K and the “ΔH contribution” value [6] was over 50%. It also gave a Kd ([6]; 15° C., read-out: Kd −15° C.) of 910 ± 60 nM, a Kd ([6]; 25° C., read-out: Kd −25° C.) of 1310 ± 80 nM and a Kd ([6]; 37° C., read-out: Kd −37° C.) of 1550 ± 80 nM. For the same compound, the ΔG ([6]; T = 310K (37° C.), Eq. 2) was -8.2 ± 0.1 kcal/mol, the ΔH [6, 7] was -4.3 ± 1.1 kcal/mol and the ΔS [6, 7] was “+12.8 ± 3.7 cal/mol · K”.
